pIC50: −log10 of the molar value.
Columns and labels:
[1] = target: CDK6/Cyclin D1 (Homo sapiens (Human), UniProt Q00534); assay: CDK6/CyclinD1 enzymatic activity assay (TR-FRET); format: biochemical; conditions: ATP 250 μM, read-out: CDK6_D1 IC50
Outline: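 Insect-cell-expressed CDK6/Cyclin D1 (1 nM) phosphorylated ULight-4E-BP1 (100 nM) with 250 μM ATP in HEPES pH 7.4 buffer. After 20 min compound preincubation, reactions were started with 10 mM MgCl2 and run 60 min at 37 °C. EDTA-quenched samples were read by TR-FRET with Eu-anti-P-4E-BP1; IC50 from 9-dose 4-parameter fits.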

[2] = Brain-to-plasma ratio (Kp) determination in Sprague-Dawley rats; conditions: male, rat, brain (homogenate) versus plasma, po, 10 mg/kg
[3] = test system: MCF7 adenocarcinoma cell line; assay: Cell proliferation studies in MCF7 cells (ATP-Lite, 10 days); format: cell-based; conditions: Homo sapiens, 240 h, read-out: PROLIFERATION_CTG_MCF7 IC50
Outline: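 Cells were seeded at 100 or 200 per well in DMEM with 10% FBS and dosed in quadruplicate over a 9-point 3-fold dilution. Incubation lasted 10 days at 37 °C, with media exchange and re-dosing on day 5. Viability was read by ATP-Lite luminescence and normalised to background and DMSO, giving IC50.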

[4] = target: CDK4/Cyclin D1 (Homo sapiens (Human), UniProt P11802); assay: CDK4/CyclinD1 enzymatic activity assay (TR-FRET); format: biochemical; conditions: ATP 2 mM, read-out: CDK4_D1 IC50
CDK4/Cyclin D1, sequence (P11802 whole entry): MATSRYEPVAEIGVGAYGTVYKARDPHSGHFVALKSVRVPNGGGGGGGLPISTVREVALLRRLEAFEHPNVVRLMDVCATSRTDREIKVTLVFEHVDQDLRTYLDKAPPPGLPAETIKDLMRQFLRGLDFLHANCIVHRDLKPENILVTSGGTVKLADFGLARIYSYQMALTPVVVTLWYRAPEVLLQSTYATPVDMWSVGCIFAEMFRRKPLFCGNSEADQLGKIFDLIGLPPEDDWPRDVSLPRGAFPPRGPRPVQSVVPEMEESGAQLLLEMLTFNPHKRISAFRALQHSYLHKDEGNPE
CDK4/Cyclin D1, sequence (P24385 whole entry partner): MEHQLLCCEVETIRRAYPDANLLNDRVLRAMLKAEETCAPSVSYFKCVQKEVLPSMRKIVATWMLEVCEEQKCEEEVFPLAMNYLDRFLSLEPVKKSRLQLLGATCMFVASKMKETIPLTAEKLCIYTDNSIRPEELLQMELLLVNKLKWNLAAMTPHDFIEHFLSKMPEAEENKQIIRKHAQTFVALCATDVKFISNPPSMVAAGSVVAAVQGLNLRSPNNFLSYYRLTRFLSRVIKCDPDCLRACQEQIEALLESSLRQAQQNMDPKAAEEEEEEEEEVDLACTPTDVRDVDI
Outline: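 Insect-cell CDK4/Cyclin D1 (1 nM) with ULight-4E-BP1 (100 nM) and 2 mM ATP in HEPES pH 7.4 buffer, preincubated 20 min with compound (9-dose, 3-fold dilutions); 10 mM MgCl2 started the reaction, run 60 min at 37 °C. EDTA/Eu-anti-phospho-4E-BP1 TR-FRET detection; IC50 from 4-parameter Hill fit.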

CDK6/Cyclin D1, sequence (Q00534 whole entry): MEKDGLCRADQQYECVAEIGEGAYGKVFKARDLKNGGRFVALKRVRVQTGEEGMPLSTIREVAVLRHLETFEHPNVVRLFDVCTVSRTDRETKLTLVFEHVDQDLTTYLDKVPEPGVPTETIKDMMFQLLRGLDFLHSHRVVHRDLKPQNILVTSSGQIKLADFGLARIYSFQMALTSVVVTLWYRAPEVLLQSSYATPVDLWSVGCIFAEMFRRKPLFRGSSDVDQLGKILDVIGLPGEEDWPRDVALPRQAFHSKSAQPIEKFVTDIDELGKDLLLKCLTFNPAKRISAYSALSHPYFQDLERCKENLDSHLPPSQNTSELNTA
CDK6/Cyclin D1, sequence (P24385 whole entry partner): as the sequence (P24385 whole entry partner) above

Row | pIC50 [1] | Kp at 4 h [2] | pIC50 [3] | pIC50 [4] | Compound
1 | ≥ 7.70 | 1 to 3 | 6.70 to 7.70 | ≥ 7.70 | CCN1CCN(Cc2ccc(Nc3ncc(F)c(-c4sc5c(ncn5C(C)C)c4C)n3)nc2)CC1 [Example 124, N-[5-[(4-Ethylpiperazin-1-yl)methyl]pyridin-2-yl]-5-fluoro-4-(6-methyl-3-propan-2-ylthieno[2,3-d]imidazol-5-yl)pyrimidin-2-amine]
2 | ≥ 7.70 | 1 to 3 | ≥ 7.70 | ≥ 7.70 | CCN1CCC(c2ccc(Nc3ncc(F)c(-c4sc5c(ncn5C(C)C)c4C)n3)nc2)CC1 [Example 128, N-(5-(1-Ethylpiperidin-4-yl)pyridin-2-yl)-5-fluoro-4-(3-isopropyl-6-methyl-3H-thieno[2,3-d]imidazol-5-yl)pyrimidin-2-amine]
3 | ≥ 7.70 | 1 to 3 | ≥ 7.70 | ≥ 7.70 | CCN1CC2(C1)CN(c1ccc(Nc3ncc(F)c(-c4cc5ncn(C(C)C)c5s4)n3)nc1)C2 [Example 129, N-(5-(6-ethyl-2,6-diazaspiro[3.3]heptan-2-yl)pyridin-2-yl)-5-fluoro-4-(3-isopropyl-3H-thieno[2,3-d]imidazol-5-yl)pyrimidin-2-amine]
4 | 6.70 to 7.70 | 1 to 3 | 6.70 to 7.70 | ≥ 7.70 | Cc1c(-c2nc(Nc3ccc(C4CCCN(C)C4)cn3)ncc2Cl)sc2c1ncn2C(C)C (stereo not shown) [Example 130, 5-Chloro-4-(3-isopropyl-6-methyl-3H-thieno[2,3-d]imidazol-5-yl)-N-(5-(1-methylpiperidin-3-yl)pyridin-2-yl)pyrimidin-2-amine]

From patent US11685744B2, “CDK inhibitors and their use as pharmaceuticals” (Prelude Therapeutics, Incorporated, priority 2020, dated 2023)
